The record followed here is US5025036A, “Catechol carboxylic acids” (Hoffmann-La Roche Inc., priority 1989, dated 1991).

One test concerns Carrageenan pleurisy. The experiment in a line: Carrageenan Pleurisy Test (In Vivo). Conditions: Rattus norvegicus, po, read-out: Rat Carrageenan Pleurisy % Inhib. of Exudate Volume; for inhibition in vivo at 100 mg/kg: at 100 mg/kg p.o. The arrangement: species or system male Lewis rats. As for the experimental part:
The animals utilized in these studies were male Lewis rats (Charles River Breeding Laboratories) weighing between 230-250 g. […] At 5 or 24 hours after CG injection, the rats were killed by decapitation, exsanguinated, and the pleural cavity exposed by cutting the ribs on both sides of the sternum. The exudate fluid was removed from the pleural cavity with disposable plastic pipettes and its volume quantitated. The pleural cavity was then washed once with phosphate buffered saline containing fetal bovine serum (1:1) and the washings combined with the exudate. The total number of cells in the pleural cavity was quantitated using a Coulter Counter (Model ZM) adjusted to exclude any contaminating RBC. (Published in "Plant Flavonoids in Biology & Medicine: Biochemical, Pharmacological and Structure-Activity Relationships" p. 231-242 (1986) Alan R. Liss, Inc.)

Test [1] concerns myeloperoxidase accumulation (acetic acid-induced colitis). The test can be described thus: Acetic Acid-Induced Colitis in Rats, In Vivo. Further details: species or system male rats (Sprague-Dawley). From the text: The rat acetic acid-induced colitis bioassay has been described by J. E. Krawisz, et al. in Amer. J. Proc. Gastro. Col. Rec. Surg. 31: 11-18 (1980), and by P. Sharon and W. F. Stenson in Gastroenterolgy 88: 55-63 (1985) and 86: 453-460 (1984). Acetic acid-induced colitis is characterized by the movement of inflammatory cells into the colon, with the number of such cells in the mucosa being measured by the activity of myeloperoxidase, a marker enzyme for these cells. Positive desirable activity is indicated by a reduction in the high levels of myeloperoxidase caused by acetic acid. Male rats (Sprague-Dawley), weighing 150 to 300 g, were pretreated twice daily for two days with either the vehicle (water, or dimethylsulfoxide) or the test inhibitor compound suspended in water or dissolved in dimethylsulfoxide and orally administered. On the third day, the animals were dosed the same as on the previous two days, anesthetized with metofane, and 2 ml of 2.5% acetic acid was injected by syringe into the colonic lumen, followed immediately by 3 ml of air and a rinse consisting of 3 ml of phosphate-buffered saline (the acetic acid is present in the lumen for a sufficient period to cause inflammation without producing severe necrosis or irreversible damage). The animals were administered a second dose of the test compound in the same amount about 16 hours later. 24 hours after the acetic acid treatment, the animals were sacrificed, the colonic mucosa was surgically removed and homogenized in an aqueous buffer at pH 6 with a Tissumizer or similar device and myeloperoxidase was measured in the homogenate using o-phenylenediamine as a chromagen, as described by A. Voller, D. E. Bidwell and A. Bartlett in The Enzyme Linked Immunosorbent Assay (ELISA), Zoological Soc., London, 1979, pages 29-30. Control animals were pretreated with the vehicle and saline in place of acetic acid.

Another test deals with ear edema. The test can be described thus: Mouse Ear Edema Test (In Vivo), arachidonic acid. The arrangement: species or system CD-1 male mice. Conditions: topical, 1 h, at 1 mg topically. From the text:
Invest. Dermatol. 80:48 (1983) and Hames, Opas and Bonney, "Arachidonic Acid Metabolites in Mouse Ear Edema" Advances in Inflammation Research, 11:57 (1986). […] CD-1 male mice weighing 15 to 25 g were employed, and they were designated as follows: (1) Control Group, in which no arachidonic acid or test compound was to be applied, (2) Arachidonic Acid-Treated Group, in which no test compound was to be applied, and (3) Treated Group, in which the test compound was to be applied first, followed by the application of arachidonic acid. In the case of the Group (3) animals, the test compound, dissolved in acetone, was applied to the dorsal surface of the right ear of the mouse with a 25-microliter pipettor, with the dose of the test compound being varied. After 0.5 hours in some cases and 4 hours in others, the arachidonic acid was topically applied in the same manner as above to the pretreated ear areas. In each case of arachidonic acid application, an amount of 0.5 mg dissolved in 25 microliters of acetone was used. After 1 hour, the mice were sacrificed by carbon dioxide inhalation. A 6 mm-diameter standard biopsy punch was used to obtain a uniform tissue sample from the ear of each mouse so treated, and the tissue samples were weighed to the nearest 0.1 mg. The percent inhibition of ear edema formation was calculated as follows: [formula]

On to `CCCc1c(OCCCCc2cccc(O)c2O)ccc(C(C)=O)c1O` [1-[2-Hydroxy-4-[4-(2,3-dihydroxyphenyl)butoxy]-3-propylphenyl]ethanone], for which the inhibition in vivo at 100 mg/kg in the test on Carrageenan pleurisy worked out at 53%. Moreover, the “Rat Acetic Acid Colitis Model % Inhib. of Myeloperoxidase Accumulation” value is 46 ± 7% in test [1] (10 mg/kg p.o) and 89 ± 11% in test [1] (30 mg/kg p.o).

Consider `CCCc1c(OCCCCCCc2ccc(C(C)C)c(O)c2O)ccc(C(C)=O)c1O` [1-[2-hydroxy-4 [6-[2,3 dihydroxy-4-(1-methylethyl)phenyl]hexyloxy]-3 propylphenyl]ethanone], for which the “Rat Acetic Acid Colitis Model % Inhib. of Myeloperoxidase Accumulation” value in test [1] (10 mg/kg p.o) was 65 ± 10%.

Consider `CCCc1c(OCCCCCCc2cccc(O)c2O)ccc(C(C)=O)c1O` [1-[2-hydroxy-4-[6-(2,3-dihydroxyphenyl)hexyloxy]-3-propylphenyl]ethanone], for which the inhibition in vivo at 100 mg/kg in the test on Carrageenan pleurisy was determined as 51%. For the same molecule, the inhibition in vivo at 1 mg in the test on ear edema came out at 21%.

Take `CCCc1c(OCCCc2ccc(O)c(O)c2)ccc(C(=O)O)c1O` [4-[3-(3,4-Dihydroxyphenyl)propoxy]-2-hydroxy-3-propylbenzoic acid]: in the test on Carrageenan pleurisy, the inhibition in vivo at 100 mg/kg is 55%. In the test on ear edema, the inhibition in vivo at 1 mg came out at 32%. Further, in test [1] (30 mg/kg p.o), the “Rat Acetic Acid Colitis Model % Inhib. of Myeloperoxidase Accumulation” value is 39 ± 5%.

Consider `CCCc1c(OCCCCc2cccc(O)c2O)ccc(C(=O)O)c1O` [4-[4-(2,3-dihydroxyphenyl)butoxy]-2-hydroxy-3-propylbenzoic acid], for which, in the test with Carrageenan pleurisy, the inhibition in vivo at 100 mg/kg was determined as 76%. Further, in the test on ear edema, the inhibition in vivo at 1 mg turned out to be 17%. The entries for the “Rat Acetic Acid Colitis Model % Inhib. of Myeloperoxidase Accumulation” value in test [1] (10 mg/kg p.o) and in test [1] (30 mg/kg p.o) were 73 ± 10% and 71 ± 11%, respectively.

Consider `CCCc1c(OCCCCCc2cccc(O)c2O)ccc(C(=O)O)c1O` [4-[5-(2,3-Dihydroxyphenyl)pentyloxy]-2-hydroxy-3-propylbenzoic acid], for which the inhibition in vivo at 100 mg/kg in the test with Carrageenan pleurisy was 63%. The inhibition in vivo at 1 mg in the test with ear edema came to 0%. Further, the “Rat Acetic Acid Colitis Model % Inhib. of Myeloperoxidase Accumulation” value in test [1] (1 mg/kg p.o) is on record as 96 ± 13%.

Take `CCCc1c(OCCCCCCc2cccc(O)c2O)ccc(C(=O)OCC)c1O` [4-[6-(2,3-Dihydroxyphenyl)hexyloxy]-2-hydroxy-3-propylbenzoic acid ethyl ester]: in the test on Carrageenan pleurisy, the inhibition in vivo at 100 mg/kg worked out at 44%. In addition, the inhibition in vivo at 1 mg in the test on ear edema was 64%. Further, the figures for the “Rat Acetic Acid Colitis Model % Inhib. of Myeloperoxidase Accumulation” value in test [1] (1 mg/kg p.o) and in test [1] (3 mg/kg p.o) were 40 ± 9% and 67 ± 11%, respectively.

Consider `CCCc1c(OCCCCCCc2cccc(O)c2O)ccc(C(=O)O)c1O` [4-[6-(2,3-Dihydroxyphenyl)hexyloxy]-2-hydroxy-3-propylbenzoic acid], for which the inhibition in vivo at 100 mg/kg in the test with Carrageenan pleurisy worked out at 68%. Also, the inhibition in vivo at 1 mg in the test with ear edema was 46%. In addition, the “Rat Acetic Acid Colitis Model % Inhib. of Myeloperoxidase Accumulation” value in test [1] (10 mg/kg p.o) is 42 ± 2%; in test [1] (30 mg/kg p.o), 67 ± 15%.

With `O=C(O)c1ccc(OCCCCCCc2cccc(O)c2O)cc1O` [4-[6-(2,3-Dihydroxyphenyl)hexyloxy]-2-hydroxybenzoic acid], the inhibition in vivo at 100 mg/kg in the test on Carrageenan pleurisy came out at 0%. Moreover, in the test with ear edema, the inhibition in vivo at 1 mg came to 50%. The “Rat Acetic Acid Colitis Model % Inhib. of Myeloperoxidase Accumulation” value in test [1] (1 mg/kg p.o) is 82 ± 9%; in test [1] (3 mg/kg p.o), 81 ± 15%.

In the case of `O=C(O)c1ccc(OCCCCCCc2cccc(O)c2O)cc1` [4-[6-(2,3-Dihydroxyphenyl)hexyloxy]benzoic acid], in the test with Carrageenan pleurisy, the inhibition in vivo at 100 mg/kg was 46%. This molecule showed an inhibition in vivo at 1 mg with ear edema of 48%. In addition, the “Rat Acetic Acid Colitis Model % Inhib. of Myeloperoxidase Accumulation” value in test [1] (3 mg/kg p.o) worked out at 79 ± 8%; in test [1] (10 mg/kg p.o), 89 ± 28%.

As for `CCCc1c(OCCCCCCc2ccc(O)c(O)c2)ccc(C(=O)O)c1O` [4-[6-(3,4-dihydroxyphenyl)hexyloxy]-2-hydroxy-3-propylbenzoic acid], the inhibition in vivo at 100 mg/kg with Carrageenan pleurisy worked out at 0%. Further, the inhibition in vivo at 1 mg with ear edema worked out at 21%.

Turning to `CCCc1c(OCCCCCCc2ccc(C(C)C)c(O)c2O)ccc(C(=O)O)c1O` [4-[6-[2,3-dihydroxy-4-(1-methylethyl)phenyl]hexyloxy]-2-hydroxy-3-propylbenzoic acid], the inhibition in vivo at 75 mg/kg in the test with Carrageenan pleurisy (at 75 mg/kg p.o) is 47%. Moreover, the inhibition in vivo at 1 mg with ear edema was determined as 45%. The figures for the “Rat Acetic Acid Colitis Model % Inhib. of Myeloperoxidase Accumulation” value in test [1] (10 mg/kg p.o) and in test [1] (100 mg/kg p.o) were 53 ± 12% and 86 ± 9%, respectively.

In the case of `CCCc1c(OCCCCCCCc2cccc(O)c2O)ccc(C(=O)O)c1O` [4-[7-(2,3-dihydroxyphenyl)heptyloxy]-2-hydroxy-3-propylbenzoic acid], the inhibition in vivo at 100 mg/kg in the test on Carrageenan pleurisy was determined as 57%. In the test on ear edema, the inhibition in vivo at 1 mg is 57%.

As for `CCCc1c(OCCCCCCCCc2cccc(O)c2O)ccc(C(=O)O)c1O` [4-[8-(2,3-dihydroxyphenyl)octyloxy]-2-hydroxy-3-propylbenzoic acid], in the test on Carrageenan pleurisy, the inhibition in vivo at 100 mg/kg worked out at 66%. Moreover, the inhibition in vivo at 1 mg in the test with ear edema was 78%. The “Rat Acetic Acid Colitis Model % Inhib. of Myeloperoxidase Accumulation” value is reported as 35 ± 7% in test [1] (10 mg/kg p.o) and 27 ± 3% in test [1] (100 mg/kg p.o).

As for `CCCc1c(OCCCCCCCCCCc2cccc(O)c2O)ccc(C(=O)O)c1O` [4-[10-(2,3-dihydroxyphenyl)decyloxy]-2-hydroxy-3-propylbenzoic acid], in the test with Carrageenan pleurisy, the inhibition in vivo at 100 mg/kg is 61%. The molecule further had an inhibition in vivo at 1 mg in the test with ear edema of 49%.

With `CCCc1c(O)c(C(=O)O)cc(Cl)c1OCCCCCCc1cccc(O)c1O` [5-Chloro-2-hydroxy-4-[6-(2,3-dihydroxyphenyl]hexyloxy]-3-propylbenzoic acid], the inhibition in vivo at 50 mg/kg with Carrageenan pleurisy (at 50 mg/kg p.o) came to 45%. In addition, in the test on ear edema, the inhibition in vivo at 1 mg came out at 51%. For the same molecule, the “Rat Acetic Acid Colitis Model % Inhib. of Myeloperoxidase Accumulation” value in test [1] (30 mg/kg p.o) was found to be 44 ± 6%.
